Results as given in US8778961B2, “O-methylated rapamycin derivatives for alleviation and inhibition of lymphoproliferative disorders” (The Trustees of the University of Pennsylvania, priority 2000, dated 2014).

Columns and labels:
[1] = toxicity study in BALB/c and SCID mice; type: in vivo; conditions: 5 milligrams per kilogram body weight per day
From the text: Five- to seven-week-old immunodeficient SCID mice (C.B-17 and ICR) were purchased from Taconic (Germantown, N.J.) and housed at the University of Pennsylvania Animal Facility under pathogen-free conditions in a laminar air flow unit and supplied with sterile food and water. In the toxicity studies, 5-7 week old inbred BALB/c mice (Taconic) were used in addition to the SCID mice.
Mice were sacrificed by exposure to FORANE™ (isoflurane, Ohmeda, Liberty Place, N.J.) on day 29 in the drug toxicity study, on day 40-55 in the tumor growth inhibition study or when tumors achieved approximately 2 centimeter diameter, or when ulceration of the skin, signs of severe respiratory distress, weakness, or lethargy appeared. Complete autopsy was performed on all mice at the end of the study regardless of their appearance. Tumor and internal organs (spleen, liver, lung, heart, kidney, small and large intestines, femoral bone for bone marrow) were fixed in 10% (v/v) formalin, embedded in paraffin, cut into […] sections, transferred to glass slides, and stained with hematoxylin and eosin. Representative tumor fragments were stained immunohistochemically by standard streptavidin-biotin complex technique using commercially available reagents (Research Genetics, Huntsville, Ala.), antibodies: anti-CD20 (L-26) and LMP-1 (both from DAKO, Carpinteria, Calif.) and Ki67 (mib1; Immunotech, Westbrook, Me.). EBV-encoded RNA (EBER-1), and detected using commercially available reagents.
Previous studies have shown that a minimal effective dose of SDZ RAD in rats was 5 milligrams per kilogram body weight per day and >5 milligrams per kilogram body weight per day in the in kidney and heart transplant model, respectively, when SDZ RAD was used as a single immunosuppressive agent (Schuurman et al., 1997, Transplantation 64:32-5; Schuler et al. 1997, Transplantation 64: 36-42). In order to determine if prolonged exposure to SDZ RAD is non-toxic for mice, both immunocompetent and immunodeficient, a cohort of normal BALB/c mice were treated with the above dose of SDZ RAD for 28 days. Ten treated and 5 control, untreated mice were used in this study. Later SCID mice which were transplanted with human PTLD-like lymphomas and treated with SDZ RAD for up to 55 days were evaluated. Seven treated and 5 control untreated SCID mice were evaluated in this experiment. After receiving the final dose of the drug, all mice were sacrificed and the following organs were harvested for histopathologic evaluation to investigate for possible toxic effects: liver, spleen, kidney, small intestine, large intestine, heart, lung, and femoral bone for bone marrow.

[2] = tested on: PTLD-like EBV+ B cell lines; experiment: in vitro cell growth inhibition (3H-thymidine incorporation); type: cell-based, human; conditions: for degree of inhibition of growth: 0-10 nanomolar
From the text: Most cell lines used in this study were lymphoblastoid B-cell lines obtained by in vitro infection with EBV of peripheral blood mononuclear cells (PBMC). Cell lines A1 and A2D6 were obtained from normal, healthy individuals. Cell lines 15A and 20A were obtained from two different patients with a low grade B-cell lymphoma with monoclonal cold agglutinins (Silberstein et al., 1991, Blood 78:2372-2386). Both lines secreted cold agglutinins with the same specificity as the cold agglutinins found in the patient's serum (Silberstein et al., 1991, Blood 78:2372-2386). […] LCL B-cell line was obtained from a patient with a progressive cutaneous T-cell lymphoproliferative disorder (Zhang et al., 1996, Proc. Natl. Acad. Sci. USA 93:9148-9153). BC-1 is derived from a peritoneal effusion B-cell lymphoma (PEL) and, in addition to EBV, harbors […] virus (Cesarman et al., 1995, Blood 86:2708-2714). The other 3 cell lines used as controls in the in vitro growth inhibition assay were HTLV-I (+) T-cell lines ATL-2 (Maeda et al., 1985, Exp. Med. 162:2169-2174); C10MJ2 (Popovic et al., 1983, Science 219: 856-859); and HUT102B (Poiescz, 1980, Proc. Natl. Acad. Sci. USA 77:7415-7419; Bunn, et al, 1996, J. Cell. Biochem. Suppl 24:12-23) derived from patients with adult T-cell leukemia/lymphoma (ATLL). They were shown by us to be non-responsive to SDZ RAD and the related, immunosuppressive macrolide, rapamycin (Zhang et al., 1999, Leukemia Res. 23:373-384). All cell lines were maintained in humidified incubators at 37° C. in an atmosphere containing 5% CO2 in standard medium: RPMI Medium 1640 (Gibco BRL, Grand Island, N.Y.) supplemented with 10% (v/v) heat inactivated fetal bovine serum (BioWhittaker, Walkersville, Md.), 1% penicillin/streptomycin/fungizone mixture (Gibco BRL), and 2 millimolar L-glutamine (Gibco BRL).
An assay to assess inhibition of in vitro cell growth by SDZ RAD was performed as described (Zhang et al., 1999, Leukemia Res. 23:373-384; Zhang et al., 1996, Proc. Natl. Acad. Sci. USA 93:9148-9153). Briefly, cell lines were cultured for 32 hours in triplicate at 2×10^4 cells per well in the presence of various concentrations of SDZ RAD (Novartis Pharma, Basel). After pulsing the cells with 0.5 microcurie ^3H-thymidine (New England Nuclear, Boston, Mass.) and culturing the cells for the next 18 hours, isotope incorporation into the cells was measured. The results of proliferation assays were expressed as the mean radioactivity of triplicate cultures. Standard deviation within the triplicates was <15%.
In order to determine whether SDZ RAD can inhibit proliferation of cells mimicking PTLDs, 6 different EBV^+ B cell lines were cultured in vitro in the presence of the drug at various concentrations. […]

[3] = BALB/c 28 days, SCID up to 55 days

CO[C@H]1C[C@@H]2CC[C@@H](C)[C@@](O)(O2)C(=O)C(=O)N2CCCC[C@H]2C(=O)O[C@H]([C@H](C)C[C@@H]2CC[C@@H](OCCO)[C@H](OC)C2)CC(=O)[C@H](C)/C=C(\C)[C@@H](O)[C@@H](OC)C(=O)[C@H](C)C[C@H](C)/C=C/C=C/C=C/1C [SDZ RAD, 40-O-(2-hydroxy)ethyl-rapamycin]
growth and weight gain vs control group [1, 3]: the same | visible signs of drug toxicity [1, 3]: None of the treated mice | microscopic evaluation of organs ([1]; liver, spleen, kidney, intestines, heart, lung, bone marrow): no pathologic changes | adverse effect of prolonged exposure ([1]; regardless of immune status): no adverse effect | inhibition of growth ([2]; 1 nanomolar, all EBV+ B cell lines, 32 hours culture then 18 hours 3H-thymidine pulse): 60-95% | sensitivity of cell lines to the drug ([2]; all PTLD-like EBV+ B cell lines): very sensitive | degree of inhibition of growth ([2]; cell lines obtained from normal B cells): 90-100% | degree of inhibition of growth ([2]; lines derived from patients with B-cell lymphomas (15A, 20A and BC-1)): 80-90%
